From patent US9701631B2, “TIP60 inhibitors” (The Trustees Of The University Of Pennsylvania, priority 2010, dated 2017)
Values belong to the molecule of their own block, whether it stands above or below them.

How the values were obtained:
[1] = test system: dextran sodium sulfate (DSS) model of colitis; assay: DSS model of established colitis in mice, remedial treatment; type: in vivo
Procedure: FIGS. 12A-C are the result of experiments described in Example 5. […] FIG. 12C provide graphical data for weight loss, bleeding score, and stool consistency (i.e., higher score reflects higher levels of diarrhea), wherein the mice were first subjected to DSS irritation, then subset populations were remedially treated after 8 days with the compound having Structure B7.
In a first test, the effects of exposure to dextran sodium sulfate (DSS) were evaluated, which results in a partially CD4-dependent inflammatory model of colitis, in wildtype (WT) versus TIP60dn C57BL/6 mice (8 mice/group).
Data were also generated using the compound of Structure B7 in the DSS model, in an experiment designed to test the ability of TIP60 inhibitor therapy to reverse established colitis by waiting until mice had ˜15% weight loss. In marked contrast to use of carrier DMSO alone, TIP60 inhibitor therapy (2 mg/kg/d, i.p.) reversed weight loss (p<0.01), blood in the stool (p<0.01) and diarrhea (p<0.005) (see FIG. 12C) and maintained colon length (p<0.01).

[2] = test system: Treg suppression of T cell proliferation; assay: Treg suppression assay in vitro (T cell proliferation, 3 days, CFSE dye, flow cytometry); type: cell-based; details: for enhancement of suppression of Treg in vitro: 500x dilution of 10 mM solution (20 micromolar), FIG. 10; for percentage of proliferated cells: Treg:Teff=1:1
From the text: FIGS. 8A-D are flow cytometry dataplots showing the enhancement of TIP60 inhibitor B7 suppression of Treg in vitro. Individual peaks reflect number of cells divisions under the standard test conditions (3 days), where the cell populations are dyed with CFSE (carboxyfluorescen diacetate, succimidyl ester). FIG. 8A are the data for DMSO without B7; FIG. 8B are the data for B7-1000×; FIG. 8C are the data for B7-4000×; and FIG. 8D are the data for B7-8000. In each case, the 1000×/4000×/8000× refers to the dilution factor of the B7, from an original 10 mM solution of B7; e.g, 1000× represents a solution diluted by a factor of 1000, so as to result in a 10 micromolar solution. The numbers in the upper left corner of the plot (e.g., 88, 81, 74, 65, and 37 of FIG. 8A) refer to the measured percentage of proliferated cells.
FIGS. 10A-E are flow cytometry dataplots showing the enhancement of TIP60 inhibitors B7 suppression of Treg in vitro. FIG. 10A are the data for DMSO without any B7-type inhibitor; FIG. 10B are the data for B7-500×; FIG. 10C are the data for B7A-500×; FIG. 10D are the data for B7B-500; and FIG. 10E are the data for B7C-500×. In each case, the 500× refers to the dilution factor of the B7/B7A/B7B/B7C, from an original 10 mM solution of the compound; e.g, 500× represents a solution diluted by a factor of 500, so as to result in a 20 micromolar solution.
Several exemplary compounds of the present invention were screened at 10 μg/ml in vitro, at varying Treg:T cell ratios, using standard cell proliferation techniques (3 days, using CSFE dyes). Such techniques are well understood by those skilled in the art. For example, see Akimova T, Ge G, Golovina T, Mikheeva T, Wang L, Riley J L, Hancock W W., “Histone/protein deacetylase inhibitors increase suppressive functions of human FOXP3+ Tregs,” Clin Immunol. 2010 September; 136(3):348-63; Tao R, Hancock W W., Resistance of FOXP3+ regulatory T cells to Nur77-induced apoptosis promotes allograft survival,” PLoS One. 2008 May 28; 3(5):e2321; Tao R, Wang L, Murphy K M, Fraser C C, Hancock W W., “Regulatory T cell expression of herpesvirus entry mediator suppresses the function of B and T lymphocyte attenuator-positive effector T cells.,” J. Immunol. 2008 May 15; 180(10):6649-55; and Tao R, de Zoeten E F, Ozkaynak E, Chen C, Wang L, Porrett P M, Li B, Turka L A, Olson E N, Greene M I, Wells A D, Hancock W W., “Deacetylase inhibition promotes the generation and function of regulatory T cells,” Nat. Med. 2007 November; 13(11):1299-307 for the protocols used herein. Each of these references is incorporated by reference herein, at least for this purpose.
T cell proliferation was unimpaired in the absence of Treg cells (see left panels in FIG. 8A-D), but was increasingly impaired at increasing Treg concentration (for example, in FIG. 8A, increasing Treg:Tcell ratio from 0:1 to 1:1 reduced proliferation from 88% to 37% under otherwise identical conditions). […] Efficacy was also seen at 1 μg/ml for some compounds.

FOXP3 = FOXP3 bound on chromatin in SZ-4 T cells (Western blot); type: cell-based; details: FIG. 9
TIP60 = target: T1, TIP60 (Homo sapiens, UniProt Q92993); assay: TIP60 activity by acetylation of TIP60 or its substrate FOXP3 in transfected 293T cells (Ac-K immunoprecipitation, Western blot); type: cell-based; details: 4 hours
T1 construct: expressed in transfected cells; host or cells: 293T cells
T1 sequence (Q92993 whole entry, species assumed): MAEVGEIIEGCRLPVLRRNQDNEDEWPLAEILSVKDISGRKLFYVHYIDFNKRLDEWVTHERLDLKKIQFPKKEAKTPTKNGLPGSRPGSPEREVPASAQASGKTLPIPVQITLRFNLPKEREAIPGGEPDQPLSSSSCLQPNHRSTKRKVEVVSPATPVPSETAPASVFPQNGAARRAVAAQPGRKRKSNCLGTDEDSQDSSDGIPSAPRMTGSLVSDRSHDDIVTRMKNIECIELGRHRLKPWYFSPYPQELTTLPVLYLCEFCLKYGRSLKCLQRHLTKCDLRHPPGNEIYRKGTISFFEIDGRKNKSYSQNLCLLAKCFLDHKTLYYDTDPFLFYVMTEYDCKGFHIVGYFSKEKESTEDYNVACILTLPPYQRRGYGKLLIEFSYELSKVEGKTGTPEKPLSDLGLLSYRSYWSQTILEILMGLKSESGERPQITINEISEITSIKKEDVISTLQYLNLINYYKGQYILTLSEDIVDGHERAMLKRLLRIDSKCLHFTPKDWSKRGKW
Procedure: FIG. 11 illustrate the effect of B7G on TIP60. TIP60 activity was assessed by examining acetylation of TIP60 or its substrate FOXP3. Both TIP60 and FOXP3 were overexpressed in 293T cells. Acetylated proteins were first immunoprecipitated with the acetyl-lysine specific antibody Ac-K and then blotted with HRP conjugated antibodies to expression tags (HA for FOXP3 or FLAG for TIP60).
TIP60 is known to have acetyl transferase activity to acetylate itself (auto-acetylation) or substrates including FOXP3. To examine activity of B7G on TIP60, 293T cells were transfected with Flag-tagged TIP60 and HA-tagged FOXP3. 24 hours after transfection, cells were treated with various concentrations of B7G for 4 hours before cell lysates were collected. Acetylated proteins were precipitated by anti-acetyl lysine antibody Ac-K. FOXP3 and TIP60 in the lysate or precipitated by Ac-K antibody were identified by anti-HA-HRP and anti-FLAG-HRP respectively.

[3] = 2 mg/kg/d i.p., vs carrier DMSO, p<0.01

Structure (SMILES): Cc1ccc(NC(=O)C2CC(=O)N(CCc3ccc(Cl)cc3)C2)cc1 (stereo not drawn) [B7]
weight loss ([1]; 2 mg/kg/d i.p., started at ~15% weight loss, vs carrier DMSO, p<0.01): reversed | diarrhea ([1]; 2 mg/kg/d i.p., vs carrier DMSO, p<0.005): reversed | blood in the stool [1, 3]: reversed | colon length [1, 3]: maintained | colon length relative to that of an unstressed control animal ([1]; single animal, 3% DSS then B7): about 94% | spleen size relative to control animal ([1]; single remediated animal, 3% DSS then B7): comparable in size to that of the control | enhancement of suppression of Treg in vitro [2]: enhancement | T cell proliferation in the absence of Treg cells ([2]; Treg:Tcell 0:1, left panels FIG. 8A-D): unimpaired | percentage of proliferated cells ([2]; FIG. 8B (B7-1000x dilution of 10 mM, 10 μM), highest B7 dosage): 25% | percentage of proliferated cells ([2]; FIG. 8C (B7-4000x dilution of 10 mM), middle B7 dosage): 30% | percentage of proliferated cells ([2]; FIG. 8D (B7-8000x dilution of 10 mM), lowest B7 dosage): 37% | Treg activity (decreasing Tcell proliferation) ([2]; dose dependent, varying Treg:T cell ratios): enhanced the Treg activity

Structure (SMILES): COc1ccc(NC(=O)C2CC(=O)N(CCc3ccc(Cl)cc3)C2)cc1 (stereo not drawn) [B7B]
enhancement of suppression of Treg in vitro [2]: enhancement

Structure (SMILES): O=C(Nc1ccc(Cl)cc1)C1CC(=O)N(CCc2ccc(Cl)cc2)C1 (stereo not drawn) [B7A]
enhancement of suppression of Treg in vitro [2]: enhancement

Structure (SMILES): Cc1ccc2cc(NC(=O)C3CC(=O)N(CCc4ccc(Cl)cc4)C3)ccc2n1 (stereo not drawn) [B7C]
FOXP3 bound on chromatin (FOXP3): intervening with FOXP3 bound on chromatin | enhancement of suppression of Treg in vitro [2]: enhancement

Acetylated FOXP3 (HA-HRP blot of Ac-K precipitated proteins) (TIP60; 32 μg/ml): reduced significantly | Acetylated TIP60 (FLAG-HRP blot of Ac-K precipitated proteins) (TIP60; 32 μg/ml): reduced significantly | TIP60 auto-acetylation (TIP60; lower concentration than 32 μg/ml): slightly increase | FOXP3 expression level in total cell lysate (TIP60; various concentrations): not significantly affected | TIP60 expression level in total cell lysate (TIP60; various concentrations): not significantly affected
Structure (SMILES): COc1ccc(CCN2CC(C(=O)Nc3ccc(F)c(Cl)c3)CC2=O)cc1OC (stereo not drawn) [B7G]
